Experiments:
Format in all cases: cell-based
Conditions in all cases: normal human peripheral blood lymphocytes
[1] = test system: MCP-1; test: MCP-1 production by human peripheral blood lymphocytes co-cultured with peptide (enzyme antibody method)
Protocol: (§1) Lymphocytes were separated from normal human peripheral blood, which was collected by using heparin sodium, by specific gravity centrifugation using Lympholight H (Cedarlane, Canada), and inducing ability for production of various cytokines and chemokines and inducing ability for expression of NFκBp65, a cellular transcription factor, were analyzed using the lymphocytes. Human cytokines (IL-6 and TNFα; Techne Co., USA), chemokines (IL-8 and MCP-1; American Research Product, Inc., USA) and on NFκB (TransAM NFκB family transcription factor assay kit; Active Motif, Co., USA) were measured by enzyme antibody method.

[2] = test system: NFκBp65; test: NFκBp65 expression in human peripheral blood lymphocytes (TransAM NFκB family transcription factor assay kit)
Protocol: as §1

[3] = test system: IL-6; test: IL-6 production by human peripheral blood lymphocytes co-cultured with peptide (enzyme antibody method)
Protocol: as §1

[4] = test system: IL-8; test: IL-8 production by human peripheral blood lymphocytes co-cultured with peptide (enzyme antibody method)
Protocol: as §1

## GQKDLLFKDSAI [HuPep4]
[1]
  inducing ability for production of MCP-1: confirmed
[2]
  enhancement of expression of NFκBp65, a cellular transcription factor: confirmed
[3]
  production of IL-6, one inflammatory cytokine: could be confirmed
[4]
  inducing ability for production of IL-8: confirmed

## FKDCHLA [HuPep1]
[1]
  inducing ability for production of MCP-1: confirmed
[2]
  enhancement of expression of NFκBp65, a cellular transcription factor: confirmed
[3]
  production of IL-6, one inflammatory cytokine: could be confirmed
[4]
  inducing ability for production of IL-8: confirmed

Reference: patent US20070197426A1, “Lactoferrin polypeptide, process for producing the same and inflammation inducing substance” (priority 2004, published 2007)
